Measurements as given in patent US20250188075A1, “SUBSTITUTED HETEROCYCLIC CSNK1 INHIBITORS” (The Broad Institute, Inc., priority 2022, published 2025).
Read-outs that look alike come from different tables or passages of the source.

Assays:
human CSNK1A1 = human CSNK1A1 (Homo sapiens (Human), UniProt P48729); experiment: CSNK1A1 assay (ADP-Glo, 1 μM ATP); assay type: biochemical; conditions: median, read-out: CSNK1A1 Low ATP IC50 [mol/l] (median)
Procedure: CSNK1A1-inhibitory activity of compounds of the present invention in presence of 1 μM adenosine-tri-phosphate (ATP) was quantified employing the CSNK1A1 assay as described in the following paragraphs. In essence, the enzyme activity is measured by quantification of the adenosine-di-phosphate (ADP), which is generated as a co-product of the enzyme reaction, via the “ADP-Glo™ Kinase Assay” kit from the company Promega. This detection system works as follows: In a first step the ATP not consumed in the kinase reaction is quantitatively converted to CAMP employing an adenylate cyclase (“ADP-Glo-reagent”), then the adenylate cyclase is stopped and the ADP generated in the kinase reaction converted to ATP which generates in a luciferase-based reaction a glow-luminescence signal (“Kinase Detection Reagent”).
Recombinant fusion protein of N-terminal Glutathion-S-Transferase (GST) and full-length human CSNK1A1, expressed by baculovirus infected insect cells and purified via Glutathion affinity chromatography, was purchased from Life Technologies (product no. PV4174) and used as enzyme. As substrate for the kinase reaction the biotinylated peptide biotin-Ahx-KRRRAL-pS-VASLPGL (C-terminus in amide form) was used which can be purchased e.g. from the company Biosyntan (Berlin-Buch, Germany).
For the assay 50 nl of a 100-fold concentrated solution of the test compound in DMSO was pipetted into a white 1536-well microtiter plate (Greiner Bio-One, Frickenhausen, Germany), 2 μL of a solution of CSNK1A1 in aqueous assay buffer [50 mM HEPES pH 7.5, 10% (v/v) glycerol, 10 mM MgCl2, 50 mM NaCl, 1 mM dithiothreitol, 0.01% (w/v) bovine serum albumin, 0.01% (v/v) Triton X-100] were added and the mixture was incubated for 15 min at 22° C. to allow pre-binding of the test compounds to the enzyme before the start of the kinase reaction. Then the kinase reaction was started by the addition of 3 μL of a solution of ATP (1.67 μM=>final conc. in the 5 μL assay volume is 1 μM) and peptide substrate (50 μM=>final conc. in the 5 μL assay volume is 30 μM) in assay buffer and the resulting mixture was incubated for a reaction time of 30 min at 22° C. The concentration of CSNK1A1 was adjusted depending of the activity of the enzyme lot and was chosen appropriate to have the assay in the linear range, a typical concentrations are about 0.0375 ng/μL. The reaction was stopped by the addition of 2.5 μL of “ADP-Glo-reagent” (1:1.5 fold diluted with water) and the resulting mixture was incubated at 22° C. for 1 h to convert the ATP not consumed in the kinase reaction completely to CAMP. Subsequently 2.5 μL of the “kinase detection reagent” (1.2 fold more concentrated than recommended by the producer) were added, the resulting mixture was incubated at 22° C. for 1 h and then the luminescence measured with a suitable measurement instrument (e.g. Viewlux™ from Perkin-Elmer). The amount of emitted light was taken as a measure for the amount of ADP generated and thereby for the activity of the CSNK1A1.
The data were normalised (enzyme reaction without inhibitor=0% inhibition, all other assay components but no enzyme=100% inhibition).

total-p53 in MCF-7 cells = experiment: HTRF total-p53 in MCF-7 cells; assay type: cell-based; conditions: median, read-out: HTRF total-p53 MCF-7, IC50 - [mol/l] (median)
Procedure: Day 1: MCF-7 cells were seeded (10,000 cells in 12 μl/well) in a 384-well-Small Volume-plate (Greiner Bio One #784075) in culture medium (RPMI 1640; (Biochrom; #F 1275; without PhenolRed)+FCS (final: 10%); (Biochrom; #S 0415)+Insulin (bovine); (final: 10 μg/mL, Biochrom; #K 3510)+L-Alanyl-L-Glutamine; (final: 2 mM, Biochrom; #K 0302)+Natriumpyruvat; (final: 1 mM, Biochrom; #L 0473)+Non Essentiell Amino Acids; (final: 1×, Biochrom; #K 0293)). The cells were then treated with different compounds or DMSO (added with the HP Dispenser) and incubated for 2 h at 37° C. Following incubation, the cells were lysed in 4 μl of lysis buffer for 1 h shaking at RT. Finally, 4 μl of antibody solution was added and the samples are incubated overnight at RT, shaking.
Total-p53 was detected in a sandwich assay format using 2 different specific antibodies, one labeled with Eu3+-Cryptate (donor) and the second with d2 (acceptor). Kit: HTRF total p53 detection assay (Cisbio Cat: 64T53PEG).
Day 2: the plate was read on PHERAstar FS (BMG Labtech settings; optic module: HTRF; integration start: 60 us; integration time: 400 μs; flash lamp). IC50 values were calculated using the DRC application in ShiNy Analysis Platform-SNAP.”

LoVo cells = experiment: LoVo cell proliferation assay, CTG method; assay type: cell-based; conditions: 96 h, median, read-out: 2D-PROLI LoVo CTG 96 h, IC50 - [mol/l] (median)
Procedure: CELL PROLIFERATION ASSAY CTG METHOD, 384-well version: Day 1: plate 400 cells/30 μL/well in growth medium (RPMI 1640 (Gibco #61870-10; with Glutamax)+10% FBS) in 384-well black plates (Corning #3571). Plated sister wells in a separate plate for time zero determination. Incubated all plates overnight at 37° C. Day 2: added test compounds in serial dilutions using the HP D300 Digital Dispenser and incubate at 37° C. for 96 h. Measured time zero plate: add 30 μL/well CTG solution (Promega CellTiter-Glo solution (catalog #G7573)) to wells in time zero plate; incubated for 2 minutes in a orbital shaker to induce cell lysis; allowed the plate to incubate at room temperature for additional 10 min to stabilize luminescent signal and read luminescence on PheraStar (rapid mode-0.02 sec/well; GAIN 3000). Day 6: Added 30 μL/well CTG solution to all test wells, incubated for 2 minutes in a orbital shaker to induce cell lysis; allowed the plate to incubate at room temperature for additional 10 min to stabilize luminescent signal and read luminescence on PheraStar (rapid mode-0.02 sec/well; GAIN 3000). Proliferation IC50s were calculated using the DRC application in ShiNy Analysis Platform-SNAP.”

[1] = Homo sapiens, MCF7, 2 h incubation

human CSNK1A1, sequence (P48729 whole entry): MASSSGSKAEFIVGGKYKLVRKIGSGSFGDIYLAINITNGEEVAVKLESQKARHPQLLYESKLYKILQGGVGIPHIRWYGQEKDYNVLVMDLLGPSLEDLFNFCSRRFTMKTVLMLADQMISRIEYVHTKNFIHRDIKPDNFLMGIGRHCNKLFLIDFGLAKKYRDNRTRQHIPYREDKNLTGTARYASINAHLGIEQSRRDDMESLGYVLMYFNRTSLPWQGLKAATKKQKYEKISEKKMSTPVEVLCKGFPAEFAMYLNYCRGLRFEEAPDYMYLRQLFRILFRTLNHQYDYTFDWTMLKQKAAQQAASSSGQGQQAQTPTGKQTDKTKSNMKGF

Row | Compound | IC50 (human CSNK1A1) [nM] | IC50 (total-p53 in MCF-7 cells; [1]) [nM] | IC50 (LoVo cells; Homo sapiens) [nM] | IC50 (total-p53 in MCF-7 cells; 2 h incubation) [nM] | IC50 (LoVo cells) [nM]
1 | Cc1nocc1CC(=O)Nc1cc(-c2[nH]c3cccnc3c2-c2ccccn2)ccn1 [Example 30, 2-(3-methylisoxazol-4-yl)-N-[4-[3-(2-pyridyl)-^1H-pyrrolo[3,2-b]pyridin-2-yl]-2-pyridyl]acetamide] | 2.62 | 226 | 10500 |  | 
2 | Cc1cc(CC(=O)Nc2cc(-c3[nH]c4cccnc4c3-c3ccccn3)ccn2)nn1C [Example 16, 2-(1,5-dimethylpyrazol-3-yl)-N-[4-[3-(2-pyridyl)-^1H-pyrrolo[3,2-b]pyridin-2-yl]-2-pyridyl]acetamide] | 2.74 | 193 | 1500 |  | 
3 | Cc1noc(C)c1CC(=O)Nc1cc(-c2[nH]c3cccnc3c2-c2ccccn2)ccn1 [Example 12, 2-(3,5-dimethylisoxazol-4-yl)-N-[4-[3-(2-pyridyl)-^1H-pyrrolo[3,2-b]pyridin-2-yl]-2-pyridyl]acetamide] | 1.71 | 205 | 6810 |  | 
4 | Cc1nc(CC(=O)Nc2cc(-c3[nH]c4cccnc4c3-c3ccccn3)ccn2)cs1 [Example 3, 2-(2-methylthiazol-4-yl)-N-[4-[3-(2-pyridyl)-^1H-pyrrolo[3,2-b]pyridin-2-yl]-2-pyridyl]acetamide] | 1.81 | 184 | 363 |  | 
5 | O=C(Cc1cc(C2CC2)on1)Nc1cc(-c2[nH]c3cccnc3c2-c2ccccn2)ccn1 [Example 27, 2-(5-cyclopropylisoxazol-3-yl)-N-[4-[3-(2-pyridyl)-^1H-pyrrolo[3,2-b]pyridin-2-yl]-2-pyridyl]acetamide] | 1.57 | 169 | 749 |  | 
6 | Cc1nc(C)c(CC(=O)Nc2cc(-c3[nH]c4cccnc4c3-c3ccccn3)ccn2)s1 [Example 18, 2-(2,4-dimethylthiazol-5-yl)-N-[4-[3-(2-pyridyl)-^1H-pyrrolo[3,2-b]pyridin-2-yl]-2-pyridyl]acetamide] | 1.46 | 56.6 | 1130 |  | 
7 | Cc1nc(CC(=O)Nc2cc(-c3[nH]c4cccnc4c3-c3ccccn3)ccn2)co1 [Example 25, 2-(2-methyloxazol-4-yl)-N-[4-[3-(2-pyridyl)-^1H-pyrrolo[3,2-b]pyridin-2-yl]-2-pyridyl]acetamide] | 2.79 | 321 | 2110 |  | 
8 | Cc1nn(C)c(C)c1CC(=O)Nc1cc(-c2[nH]c3cccnc3c2-c2ccccn2)ccn1 [Example 17, N-[4-[3-(2-pyridyl)-^1H-pyrrolo[3,2-b]pyridin-2-yl]-2-pyridyl]-2-(1,3,5-trimethylpyrazol-4-yl)acetamide] | 2.97 | 198 | 5660 |  | 
9 | Cn1nc(CC(=O)Nc2cc(-c3[nH]c4cccnc4c3-c3ccccn3)ccn2)cc1C1CC1 [Example 29, 2-(5-cyclopropyl-1-methyl-pyrazol-3-yl)-N-[4-[3-(2-pyridyl)-^1H-pyrrolo[3,2-b]pyridin-2-yl]-2-pyridyl]acetamide] | 2.21 | 199 | 782 |  | 

Next, values leading:

Row | IC50 (human CSNK1A1) [nM] | IC50 (total-p53 in MCF-7 cells; [1]) [nM] | IC50 (LoVo cells; Homo sapiens) [nM] | IC50 (total-p53 in MCF-7 cells; 2 h incubation) [nM] | IC50 (LoVo cells) [nM] | Compound
10 | 2.61 | 210 | 4070 |  |  | Cc1nn(C)cc1CC(=O)Nc1cc(-c2[nH]c3cccnc3c2-c2ccccn2)ccn1 [Example 9, 2-(1,3-dimethylpyrazol-4-yl)-N-[4-[3-(2-pyridyl)-^1H-pyrrolo[3,2-b]pyridin-2-yl]-2-pyridyl]acetamide]
11 | 1.88 | 184 | 1370 |  |  | O=C(Cc1ccn(CC(F)(F)F)n1)Nc1cc(-c2[nH]c3cccnc3c2-c2ccccn2)ccn1 [Example 20, N-[4-[3-(2-pyridyl)-^1H-pyrrolo[3,2-b]pyridin-2-yl]-2-pyridyl]-2-[1-(2,2,2-trifluoroethyl)pyrazol-3-yl]acetamide]
12 | 4.12 | 924 | 7430 |  |  | Cn1cnc(CC(=O)Nc2cc(-c3[nH]c4cccnc4c3-c3ccccn3)ccn2)c1 [Example 5, 2-(1-methylimidazol-4-yl)-N-[4-[3-(2-pyridyl)-^1H-pyrrolo[3,2-b]pyridin-2-yl]-2-pyridyl]acetamide]
13 | 1.25 |  |  | 72.8 | 211 | O=C(Nc1cc(-c2[nH]c3nccnc3c2-c2ccccn2)ccn1)[C@@H](CC(F)F)c1ccc(F)cc1 [Example C1, reference compound]
14 | 1.95 | 174 | 2380 |  |  | Cc1ncc(CC(=O)Nc2cc(-c3[nH]c4cccnc4c3-c3ccccn3)ccn2)o1 [Example 24, 2-(2-methyloxazol-5-yl)-N-[4-[3-(2-pyridyl)-^1H-pyrrolo[3,2-b]pyridin-2-yl]-2-pyridyl]acetamide]
15 | 2.28 | 129 | 636 |  |  | CC(C)n1ccc(CC(=O)Nc2cc(-c3[nH]c4cccnc4c3-c3ccccn3)ccn2)n1 [Example 28, 2-(1-isopropylpyrazol-3-yl)-N-[4-[3-(2-pyridyl)-^1H-pyrrolo[3,2-b]pyridin-2-yl]-2-pyridyl]acetamide]
16 | 1.21 |  |  | 72.4 | 115 | O=C(Nc1cc(-c2[nH]c3ccc(F)nc3c2-c2ccccn2)ccn1)[C@@H](CC(F)F)c1ccc(F)cc1 [Example C2, reference compound]
17 | 3.1 |  |  | 97.9 | 115 | O=C(Nc1cc(-c2[nH]c3c(OCC(F)F)ncnc3c2-c2ccccn2)ccn1)[C@@H](CC(F)F)c1ccc(F)cc1 [Example C3, reference compound]
18 | 1.62 | 96.9 | 427 |  |  | Cn1nc(CC(=O)Nc2cc(-c3[nH]c4cccnc4c3-c3ccccn3)ccn2)cc1C(F)(F)F [Example 21, 2-[1-methyl-5-(trifluoromethyl)pyrazol-3-yl]-N-[4-[3-(2-pyridyl)-^1H-pyrrolo[3,2-b]pyridin-2-yl]-2-pyridyl]acetamide]
19 |  | 137 | 3130 |  |  | O=C(Cc1cnco1)Nc1cc(-c2[nH]c3cccnc3c2-c2ccccn2)ccn1 [Example 4]
